Legend:
Type in all cases: in vivo, Drosophila melanogaster
[1] = test system: FS (dFMR1-3+frame shifted rescue fragment) flies; experiment: Conditioned courtship: learning during training, FS flies; conditions: MPEP 200 μg/ml in development, adulthood or both
Description: The role of dFMR1 in learning during training and immediate recall. The flies used were w1118 (the background stock from which the mutation was derived), dFMR1-3 (the mutation lacking dFMR1 expression), Rescue (dFMR1-3+wild type rescue fragment) and FS (frame shift, dFMR1-3+frame shifted rescue fragment) all from Dockendorff et al, 2002. To assess learning during training male flies are placed in a training chamber with a previously mated female for one hour. The amount of time the male spent courting in the initial ten-minute interval was compared to the amount of time the male spent courting the female target in the final ten-minute interval (FIG. 1). […] It is important to note that the level of courtship behavior towards the previously mated female is similar between the two mutant groups and the w1118 and Rescue groups. […] This is important to note, because without actively courting, the male fly cannot be trained (Tompkins et al. 1982; 1983).
Learning during training. In order to assess learning during training, the male flies were placed in a training chamber with a previously mated female for one hour. The amount of time the male spent courting in the first ten-minute interval was compared to the amount of time the male spent courting the female target in the last ten-minute interval (FIG. 4A).
Behavioral Training and Testing. […]

[2] = test system: FS (dFMR1-3+frame shifted rescue fragment) flies; experiment: Conditioned courtship: immediate recall (0 minute memory), FS flies; conditions: adulthood alone or both
Procedure: (§1) To assess immediate recall (0 minute memory), after the one hour training session with a previously mated female, the male was placed with a virgin target female for a ten-minute interval. This CI was then compared to the courtship level of naive males that had been placed in the training chamber for one hour with no female, before introducing them to a virgin target female for a ten-minute interval. In FIG. 1B the w1118 and Rescue lines show depression of courtship activity after training compared to naive trained males (p<0.005). However, dFMR1-3 and FS mutant lines court just as vigorously after training with a previously mated female as naive trained males, therefore these flies display no experience dependent behavioral plasticity at the time point of immediate recall. This is in spite of the fact that they court to similar levels as w1118 and Rescue lines during the training period. This implicates a deficit in synaptic plasticity for the two mutant lines at immediate recall (0 minute memory). This robust deficit in behavioral plasticity is a critical extension of the previous models of Fragile X syndrome in model organisms, since this has been completely missing in Drosophila models and is subtle in murine models, and particularly since this may be one of the most devastating aspects of the human disease.
(§2) Immediate recall. […]

[3] = test system: Rescue (dFMR1-3+wild type rescue fragment) flies; experiment: Conditioned courtship: immediate recall (0 minute memory), Rescue flies
Procedure: as §1, §2

[4] = test system: FS (dFMR1-3+frame shifted rescue fragment) flies; experiment: Discrimination between virgin and previously mated females, FS flies; conditions: 20-day-old; MPEP 200 μg/ml in development and adulthood (M-M)
Procedure: (§3) Short-term memory. The model was further extended to encompass short-term memory at 60 minutes after training. After the one hour training session with a previously mated female, the female is removed and the male is placed in a holding chamber for 60 minutes, then subsequently placed in a testing chamber with a virgin female target to assess short-term memory (FIG. 4C). […] CT-CT FS flies court just as vigorously at 60 minutes after training as naive CT-CT FS flies. […] The FS groups that were treated with MPEP in development alone, adulthood alone or in both development and adulthood display experience dependent reduction of courtship activity at 60 minutes after training when compared to group matched naives M-M FS, p<0.0001, CT-M FS, p<0.0001 and M-CT FS, p<0.0001. […] Additionally, flies were tested for ability to discriminate between virgin and previously mated females (FIG. 4D).
(§4) Flies were also tested for ability to discriminate between virgin and previously mated females in FIG. 9C.

[5] = test system: Rescue (dFMR1-3+wild type rescue fragment) flies; experiment: Discrimination between virgin and previously mated females, Rescue flies
Procedure: as §3, §4

[6] = test system: Rescue (dFMR1-3+wild type rescue fragment) flies; experiment: Naive courtship behavior (courtship index toward virgin female), Rescue flies; conditions: 20-day-old

`Cc1cccc(C#Cc2ccccc2)n1` [MPEP, 2-methyl-6-(phenylethynyl)pyridine] was tested, and the learning during training ([1]; 20-day-old) was “able to restore learning during training”, the learning during training ([1]; 5 day old) was “does not adversely affect learning during training” and the immediate recall ([2]; 20-day-old, MPEP in development alone) was “sufficient to restore synaptic plasticity in FS flies”. For the same compound, the “immediate recall (courtship immediately after training vs naive)” value ([2]; 5 day old, MPEP 200 μg/ml in development alone, p<0.0001) was “sufficient to rescue synaptic plasticity in FS flies”, the immediate recall ([3]; 20-day-old, MPEP in development or adulthood or both) was “does not adversely affect immediate recall” and the immediate recall ([3]; 5 day old, MPEP 200 μg/ml in development or adulthood or both) was “does not adversely affect immediate recall”. For the same compound, the “time courting virgin female compared to previously mated female (discrimination)” value [4] was “spent significantly more time courting virgin female targets”, the “time courting virgin female compared to previously mated female (discrimination)” value ([5]; 20-day-old, MPEP 200 μg/ml in development and adulthood (M-M)) was “spent significantly more time courting virgin female targets” and the “ability to discriminate between virgin and previously mated females” value ([5]; 5 day old, MPEP 200 μg/ml in adulthood only (CT-M)) was “spend similar amounts of time courting previously mated female targets and virgin female targets”. The naive courtship activity ([6]; MPEP (86.6 μM) in adulthood only (CT-M)) was “depressed relative to CT-CT Rescue flies” and the naive courtship activity ([6]; MPEP (86.6 μM) in development then M or CT food as adults) was “courted as vigorously as CT-CT Rescues flies”.

From patent publication US20080187492A1, “Drosophila Models For Diseases Affecting Learning and Memory” (priority 2004, published 2008)
